Laboratory results published in patent publication US20080221097A1, “Imidazopyridine Derivatives as Cannabinoid Receptor Ligands” (priority 2005, published 2008).
Structures can show the parent of a compound that is named as a salt.

Target: T1, human cannabinoid CB2 receptor (Homo sapiens, UniProt P34972)
T1 construct: expressed in transfected cells; host or cells: Saccharomyces cerevisiae strain MMY23 (cassette integrated at the ura3 locus, GPD promoter)
Assay: Cannabinoid CB2 receptor agonist activity, yeast assay
Type: cell-based
Settings: relative to HU210; averages of a number of experiments; read-out: efficacy (Emax) at the cloned human cannabinoid CB2 receptor
Description: The cannabinoid CB2 receptor agonist activity of compounds of formula (I) was determined in accordance with the following experimental method.
Yeast (Saccharomyces cerevisiae) cells expressing the human cannabinoid CB2 receptor were generated by integration of an expression cassette into the ura3 chromosomal locus of yeast strain MMY23. This cassette consisted of DNA sequence encoding the human CB2 receptor flanked by the yeast GPD promoter to the 5′ end of CB2 and a yeast transcriptional terminator sequence to the 3′ end of CB2. MMY23 expresses a yeast/mammalian chimeric G-protein alpha subunit in which the C-terminal 5 amino acids of Gpa1 are replaced with the C-terminal 5 amino acids of human Gαi½ (as described in Brown et al. (2000), Yeast 16:11-22). Cells were grown at 30° C. in liquid Synthetic Complete (SC) yeast media (Guthrie and Fink (1991), Methods in Enzymology, Vol. 194) lacking uracil, tryptophan, adenine and leucine to late logarithmic phase (approximately 6 OD600/ml).
Agonists were prepared as […] solutions in DMSO. EC50 values (the concentration required to produce 50% maximal response) were estimated using 4 fold dilutions (BiomekFX, Beckman) into DMSO. Agonist solutions in DMSO (1% final assay volume) were transferred into black microtitre plates from Greiner (384-well). Cells were suspended at a density of 0.2 OD600/ml in SC media lacking histidine, uracil, tryptophan, adenine and leucine and supplemented with 10 mM 3-aminotriazole, 0.1M sodium phosphate pH 7.0, and 10 μM fluorescein di-β-D-glucopyranoside (FDGlu). This mixture (50 μl per well) was added to agonist in the assay plates (Multidrop 384, Labsystems). After incubation at 30° C. for 24 hours, fluorescence resulting from degradation of FDGlu to fluorescein due to exoglucanase, an endogenous yeast enzyme produced during agonist-stimulated cell growth, was determined using a fluorescence microtitre plate reader (Tecan Spectrofluor or LJL Analyst excitation wavelength: 485 nm; emission wavelength: 535 nm). Fluorescence was plotted against compound concentration and iteratively curve fitted using a four parameter fit to generate a concentration effect value. Efficacy (Emax) was calculated from the equation
Emax=Max[compound X]−Min[compound X]/Max[HU210]−Min[HU210]×100%
where Max[compound X] and Min[compound X] are the fitted maximum and minimum respectively from the concentration effect curve for compound X, and Max[HU210] and Min[HU210] are the fitted maximum and minimum respectively from the concentration effect curve for (6aR,10aR)-3-(1,1′-Dimethylheptyl)-6a,7,10,10a-tetrahydro-1-hydroxy-6,6-dimethyl-6H-dibenzo [b,d]pyran-9-methanol (HU210; available from Tocris). Equieffective molar ratio (EMR) values were calculated from the equation
Where EC50[compound X] is the EC50 of compound X and EC50[HU210] is the EC50of HU210.

T1 sequence (P34972 whole entry): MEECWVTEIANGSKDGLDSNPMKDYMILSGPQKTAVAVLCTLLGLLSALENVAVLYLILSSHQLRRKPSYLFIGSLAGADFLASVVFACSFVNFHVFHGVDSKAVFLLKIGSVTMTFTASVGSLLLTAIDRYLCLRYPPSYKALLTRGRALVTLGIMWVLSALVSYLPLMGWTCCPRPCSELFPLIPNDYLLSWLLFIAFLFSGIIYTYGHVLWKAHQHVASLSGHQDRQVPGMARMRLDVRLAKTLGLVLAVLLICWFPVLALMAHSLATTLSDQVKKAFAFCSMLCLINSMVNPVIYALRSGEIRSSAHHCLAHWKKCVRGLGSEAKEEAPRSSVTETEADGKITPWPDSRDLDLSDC

Row | Emax [%] | Structure (SMILES)
1 | > 50 | Cn1cnc2c(Nc3cccc(Br)c3)ncc(C(=O)N3CCCCC3)c21 [Example 1, N-(3-Bromophenyl)-1-methyl-7-(1-piperidinylcarbonyl)-1H-imidazo[4,5-c]pyridin-4-amine hydrochloride salt]
2 | > 50 | Cn1cnc2c(Nc3cccc(Br)c3)ncc(C(=O)N3CCCC3)c21 [Example 3, N-(3-Bromophenyl)-1-methyl-7-(1-pyrrolidinylcarbonyl)-1H-imidazo[4,5-c]pyridin-4-amine hydrochloride salt]
3 | > 50 | CC(C)CNC(=O)c1cnc(Nc2cccc(Br)c2)c2ncn(C)c12 [Example 4, 4-[(3-Bromophenyl)amino]-1-methyl-N-(2-methylpropyl)-1H-imidazo[4,5-c]pyridine-7-carboxamide hydrochloride salt]
4 | > 50 | Cn1cnc2c(Nc3ccc(Cl)cc3Cl)ncc(C(=O)N3CCOCC3)c21 [Example 5, N-(2,4-Dichlorophenyl)-1-methyl-7-(4-morpholinylcarbonyl)-1H-imidazo[4,5-c]pyridin-4-amine hydrochloride salt]
5 | > 50 | Cn1cnc2c(Nc3ccc(Cl)cc3Cl)ncc(C(=O)N3CCCC3)c21 [Example 7, N-(2,4-Dichlorophenyl)-1-methyl-7-(1-pyrrolidinylcarbonyl)-1H-imidazo[4,5-c]pyridin-4-amine hydrochloride salt]
6 | > 50 | Cn1cnc2c(Nc3cccc(Cl)c3)ncc(C(=O)N3CCCCC3)c21 [Example 10, N-(3-Chlorophenyl)-1-methyl-7-(1-piperidinylcarbonyl)-1H-imidazo[4,5-c]pyridin-4-amine hydrochloride salt]
7 | > 50 | CC(C)CNC(=O)c1cnc(Nc2cccc(Cl)c2)c2ncn(C)c12 [Example 12, 4-[(3-Chlorophenyl)amino]-1-methyl-N-(2-methylpropyl)-1H-imidazo[4,5-c]pyridine-7-carboxamide hydrochloride salt]
8 | > 50 | Cn1cnc2c(Oc3cccc(Cl)c3)ncc(C(=O)N3CCCCC3)c21 [Example 13, 4-[(3-Chlorophenyl)oxy]-1-methyl-7-(1-piperidinylcarbonyl)-1H-imidazo[4,5-c]pyridine hydrochloride salt]
9 | > 50 | Cn1cnc2c(Oc3cccc(Cl)c3)ncc(C(=O)N3CCOCC3)c21 [Example 14, 4-1(3-Chlorophenyl)oxy]-1-methyl-7-(4-morpholinylcarbonyl)-1H-imidazo[4,5-c]pyridine hydrochloride salt]
10 | > 50 | Cn1cnc2c(Nc3cccc(OC(F)(F)F)c3)ncc(C(=O)N3CCOCC3)c21 [Example 17, 1-Methyl-7-(4-morpholinylcarbonyl)-N-{3-[(trifluoromethyl)oxy]phenyl}-1H-imidazo[4,5-c]pyridin-4-amine hydrochloride salt]
11 | > 50 | Cn1cnc2c(Nc3cccc(F)c3)ncc(C(=O)N3CCOCC3)c21 [Example 18, N-(3-Fluorophenyl)-1-methyl-7-(4-morpholinylcarbonyl)-1H-imidazo[4,5-c]pyridin-4-amine hydrochloride salt]
12 | > 50 | Cc1c(Nc2ncc(C(=O)N3CCOCC3)c3c2ncn3C)cccc1C(F)(F)F [Example 20, 1-Methyl-N-[2-methyl-3-(trifluoromethyl)phenyl]-7-(4-morpholinylcarbonyl)-1H-imidazo[4,5-c]pyridin-4-amine hydrochloride salt]
13 | > 50 | Cn1cnc2c(Nc3cccc(C(F)(F)F)c3F)ncc(C(=O)N3CCOCC3)c21 [Example 21, N-[2-Fluoro-3-(trifluoromethyl)phenyl]-1-methyl-7-(4-morpholinylcarbonyl)-1H-imidazo[4,5-c]pyridin-4-amine hydrochloride salt]
14 | > 50 | Cn1cnc2c(Nc3ccc(F)c(Cl)c3)ncc(C(=O)N3CCOCC3)c21 [Example 22, N-(3-Chloro-4-fluorophenyl)-1-methyl-7-(4-morpholinylcarbonyl)-1H-imidazo[4,5-c]pyridin-4-amine hydrochloride salt]
